Measurements taken from ChEMBL document CHEMBL2073955, “Proton/peptide cotransporter (PEPT 2) from human kidney: functional characterization and chromosomal localization” (Biochim Biophys Acta, 1995).
Where a SMILES comes first, the peptide text is derived from it.

B1: Solute carrier family 15 member 2 (Homo sapiens), Q16348 (protein)
chain: MNPFQKNESKETLFSPVSIEEVPPRPPSPPKKPSPTICGSNYPLSIAFIVVNEFCERFSYYGMKAVLILYFLYFLHWNEDTSTSIYHAFSSLCYFTPILGAAIADSWLGKFKTIIYLSLVYVLGHVIKSLGALPILGGQVVHTVLSLIGLSLIALGTGGIKPCVAAFGGDQFEEKHAEERTRYFSVFYLSINAGSLISTFITPMLRGDVQCFGEDCYALAFGVPGLLMVIALVVFAMGSKIYNKPPPEGNIVAQVFKCIWFAISNRFKNRSGDIPKRQHWLDWAAEKYPKQLIMDVKALTRVLFLYIPLPMFWALLDQQGSRWTLQAIRMNRNLGFFVLQPDQMQVLNPLLVLIFIPLFDFVIYRLVSKCGINFSSLRKMAVGMILACLAFAVAAAVEIKINEMAPAQPGPQEVFLQVLNLADDEVKVTVVGNENNSLLIESIKSFQKTPHYSKLHLKTKSQDFHFHLKYHNLSLYTEHSVQEKNWYSLVIREDGNSISSMMVKDTESRTTNGMTTVRFVNTLHKDVNISLSTDTSLNVGEDYGVSAYRTVQRGEYPAVHCRTEDKNFSLNLGLLDFGAAYLFVITNNTNQGLQAWKIEDIPANKMSIAWQLPQYALVTAGEVMFSVTGLEFSYSQAPSSMKSVLQAAWLLTIAVGNIIVLVVAQFSGLVQWAEFILFSCLLLVICLIFSIMGYYYVPVKTEDMRGPADKHIPHIQGNMIKLETKKTKL

molecular target: T1, Solute carrier family 15 member 2 (Homo sapiens, UniProt Q16348); experiment: TP_TRANSPORTER: inhibition of Gly-Sar uptake in PEPT2-expressing HeLa cells; type: functional, cell-based
T1 sequence (Q16348 whole entry): B1 chain

Point of comparison: `C[C@H](N)C(=O)N[C@@H](CCCCN)C(=O)O` (H-Ala-Lys-OH), Ki 11 µM. Against it:
- C[C@H](N)C(=O)N[C@@H](CC(=O)O)C(=O)O (H-Ala-Asp-OH) — 1.6-fold higher, 18 µM
- C[C@H](NC(=O)[C@@H](N)CCCCN)C(=O)O (H-Lys-Ala-OH) — 2.1-fold higher, 23 µM
- NCCCC[C@H](NC(=O)[C@@H](N)CC(=O)O)C(=O)O (H-Asp-Lys-OH) — within 1.5-fold, 8 µM
- C[C@H](N)C(=O)N[C@@H](C)C(=O)O (H-Ala-Ala-OH) — 1.8-fold lower, 6 µM

molecular target: T2, Solute carrier family 15 member 1 (Homo sapiens, UniProt P46059); experiment: TP_TRANSPORTER: inhibition of Gly-Sar uptake in PEPT1-expressing HeLa cells; type: functional, cell-based
T2 sequence (P46059 whole entry): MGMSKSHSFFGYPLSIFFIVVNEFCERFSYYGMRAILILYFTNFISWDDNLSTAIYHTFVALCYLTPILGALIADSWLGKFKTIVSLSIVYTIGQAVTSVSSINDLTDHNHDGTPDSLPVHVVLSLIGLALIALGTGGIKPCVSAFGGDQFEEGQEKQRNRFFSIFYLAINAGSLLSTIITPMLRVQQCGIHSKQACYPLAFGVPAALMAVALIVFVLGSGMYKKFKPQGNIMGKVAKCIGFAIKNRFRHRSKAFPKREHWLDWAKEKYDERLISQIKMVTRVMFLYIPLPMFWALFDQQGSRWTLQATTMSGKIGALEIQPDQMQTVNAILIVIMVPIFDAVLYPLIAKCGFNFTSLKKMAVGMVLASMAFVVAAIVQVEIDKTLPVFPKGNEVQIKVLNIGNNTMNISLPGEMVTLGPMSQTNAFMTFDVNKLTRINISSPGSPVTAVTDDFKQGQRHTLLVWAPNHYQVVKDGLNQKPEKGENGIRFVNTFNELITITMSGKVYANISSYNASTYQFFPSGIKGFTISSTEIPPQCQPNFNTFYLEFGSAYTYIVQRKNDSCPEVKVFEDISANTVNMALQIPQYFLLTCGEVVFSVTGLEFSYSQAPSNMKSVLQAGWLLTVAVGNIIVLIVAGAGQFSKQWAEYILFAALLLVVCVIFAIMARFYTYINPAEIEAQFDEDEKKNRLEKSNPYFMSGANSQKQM

Point of comparison: `C[C@H](NC(=O)[C@@H](N)CCCCN)C(=O)O` (H-Lys-Ala-OH), Ki 419 µM. Against it:
- C[C@H](N)C(=O)N[C@@H](CCCCN)C(=O)O (H-Ala-Lys-OH) — 3.6-fold lower, 117 µM
- C[C@H](N)C(=O)N[C@@H](CC(=O)O)C(=O)O (H-Ala-Asp-OH) — 5.4-fold lower, 78 µM
- NCCCC[C@H](NC(=O)[C@@H](N)CC(=O)O)C(=O)O (H-Asp-Lys-OH) — 3.9-fold lower, 108 µM
- C[C@H](N)C(=O)N[C@@H](C)C(=O)O (H-Ala-Ala-OH) — 5.4-fold lower, 78 µM

substrate: CN(CC(=O)O)C(=O)CN; experiment: TP_TRANSPORTER: uptake in PEPT2-expressing HeLa cells; type: functional, cell-based

B1 was tested, and the Km was 74 µM.
